Here are results for one molecule from article PMC5218480 (PLoS ONE, 2017).

This experiment deals with MV-4-11 cells. Briefly: Gene expression microarray analysis (Affymetrix PrimeView) and GSEA. The format is cell-based, human. On the set-up: RFU PODN (11730768_x_at) / Fold change /veh PODN (11730768_x_at) / RFU LINC00158 (11744669_a_at) / Fold change /veh LINC00158 (11744669_a_at) / RFU DUSP10 (11751237_a_at) / Fold change /veh DUSP10 (11751237_a_at) / RFU ID3 (11757404_x_at) / Fold change /veh ID3 (11757404_x_at) / RFU PLEKHG5 (11737974_s_at) / Fold change /veh PLEKHG5 (11737974_s_at) / RFU LRRC4B (11730491_at) / Fold change /veh LRRC4B (11730491_at) / RFU GIMAP4 (11747438_a_at) / Fold change /veh GIMAP4 (11747438_a_at) / RFU KRT8 (11758183_x_at) / Fold change /veh KRT8 (11758183_x_at) / RFU CNN1 (11734310_a_at) / Fold change /veh CNN1 (11734310_a_at) / RFU VPS37D (11726825_at) / Fold change /veh VPS37D (11726825_at) / RFU C10orf10 (11716522_x_at) / Fold change /veh C10orf10 (11716522_x_at) / RFU KIR2DL2 /// KIR2DL4 /// KIR2DL5A /// KIR2DL5B /// KIR2DS1 /// KIR2DS2 /// KIR2DS3 /// KIR2DS4 /// KIR3DL3 /// KIR3DL3 /// KIR3DS1 (11738374_at) / Fold change /veh KIR2DL2 /// KIR2DL4 /// KIR2DL5A /// KIR2DL5B /// KIR2DS1 /// KIR2DS2 /// KIR2DS3 /// KIR2DS4 /// KIR3DL3 /// KIR3DL3 /// KIR3DS1 (11738374_at) / RFU C1QL1 (11718748_at) / Fold change /veh C1QL1 (11718748_at) / RFU TMPRSS4 (11747572_a_at) / Fold change /veh TMPRSS4 (11747572_a_at) / RFU HAMP (11756126_x_at) / Fold change /veh HAMP (11756126_x_at) / RFU RNFT2 (11725882_a_at) / Fold change /veh RNFT2 (11725882_a_at) / RFU NR4A2 (11747474_a_at) / Fold change /veh NR4A2 (11747474_a_at) / RFU ABCC12 (11746883_a_at) / Fold change /veh ABCC12 (11746883_a_at) / RFU TMEM136 (11760407_x_at) / Fold change /veh TMEM136 (11760407_x_at) / RFU CLDN22 /// WWC2 (11732394_at) / Fold change /veh CLDN22 /// WWC2 (11732394_at) / RFU HLA-DPB1 (11760878_x_at) / Fold change /veh HLA-DPB1 (11760878_x_at) / RFU SPINT1 (11716480_a_at) / Fold change /veh SPINT1 (11716480_a_at) / RFU GAP43 (11754022_s_at) / Fold change /veh GAP43 (11754022_s_at) / RFU A4GNT (11735810_at) / Fold change /veh A4GNT (11735810_at) / RFU PRB3 (11715151_x_at) / Fold change /veh PRB3 (11715151_x_at) / RFU TUBB4B (11761932_at) / Fold change /veh TUBB4B (11761932_at) / RFU CAPN14 (11732068_a_at) / Fold change /veh CAPN14 (11732068_a_at) / RFU TMCC2 (11721928_a_at) / Fold change /veh TMCC2 (11721928_a_at) / RFU IRGQ (11745062_a_at) / Fold change /veh IRGQ (11745062_a_at) / RFU FAM174B (11720279_a_at) / Fold change /veh FAM174B (11720279_a_at) / RFU TMPRSS4 (11748680_a_at) / Fold change /veh TMPRSS4 (11748680_a_at) / RFU FAM212B (11763350_a_at) / Fold change /veh FAM212B (11763350_a_at) / RFU PLEKHG5 (11743358_a_at) / Fold change /veh PLEKHG5 (11743358_a_at) / RFU ZSCAN30 (11745921_a_at) / Fold change /veh ZSCAN30 (11745921_a_at) / RFU CMKLR1 (11741424_a_at) / Fold change /veh CMKLR1 (11741424_a_at) / RFU LOC101060620 /// MAPK8IP1 (11723275_at) / Fold change /veh LOC101060620 /// MAPK8IP1 (11723275_at) / RFU SPTSSB (11747773_x_at) / Fold change /veh SPTSSB (11747773_x_at) / RFU PRSS12 (11739890_at) / Fold change /veh PRSS12 (11739890_at) / RFU BIN1 (11741810_x_at) / Fold change /veh BIN1 (11741810_x_at) / RFU WNT11 (11732464_a_at) / Fold change /veh WNT11 (11732464_a_at) / RFU C10orf10 (11716521_a_at) / Fold change /veh C10orf10 (11716521_a_at) / RFU C5orf56 (11738089_at) / Fold change /veh C5orf56 (11738089_at) / RFU CYB561 (11721691_x_at) / Fold change /veh CYB561 (11721691_x_at) / RFU ANKRD19P (11752326_a_at) / Fold change /veh ANKRD19P (11752326_a_at) / RFU OR2T12 /// OR2T33 /// OR2T8 (11738714_s_at) / Fold change /veh OR2T12 /// OR2T33 /// OR2T8 (11738714_s_at) / RFU VCAN (11748164_a_at) / Fold change /veh VCAN (11748164_a_at) / RFU JSRP1 (11732532_at) / Fold change /veh JSRP1 (11732532_at) / RFU KRTAP10-11 (11738290_x_at) / Fold change /veh KRTAP10-11 (11738290_x_at) / RFU MYO3A (11730013_a_at) / Fold change /veh MYO3A (11730013_a_at) / RFU EBF3 (11725865_a_at) / Fold change /veh EBF3 (11725865_a_at) / RFU CAMK2N1 (11719241_x_at) / Fold change /veh CAMK2N1 (11719241_x_at) / RFU C5orf56 (11738088_a_at) / Fold change /veh C5orf56 (11738088_a_at) / RFU OLFML3 (11715873_a_at) / Fold change /veh OLFML3 (11715873_a_at) / RFU LOC100653217 /// NTM (11731650_a_at) / Fold change /veh LOC100653217 /// NTM (11731650_a_at) / RFU MAPK11 (11762145_a_at) / Fold change /veh MAPK11 (11762145_a_at) / RFU FIZ1 (11724087_x_at) / Fold change /veh FIZ1 (11724087_x_at) / RFU OASL (11726364_x_at) / Fold change /veh OASL (11726364_x_at) / RFU SOX15 (11748057_x_at) / Fold change /veh SOX15 (11748057_x_at) / RFU CD79A (11719716_a_at) / Fold change /veh CD79A (11719716_a_at) / RFU HIST1H1D (11736915_at) / Fold change /veh HIST1H1D (11736915_at) / RFU CASKIN2 (11723855_a_at) / Fold change /veh CASKIN2 (11723855_a_at) / RFU LOC730098 (11760151_x_at) / Fold change /veh LOC730098 (11760151_x_at) / RFU OR4N2 (11742367_at) / Fold change /veh OR4N2 (11742367_at) / RFU PRRT2 (11749266_a_at) / Fold change /veh PRRT2 (11749266_a_at) / RFU SNX32 (11753110_a_at) / Fold change /veh SNX32 (11753110_a_at) / RFU CDHR5 (11726645_a_at) / Fold change /veh CDHR5 (11726645_a_at) / RFU RCAN1 (11760418_a_at) / Fold change /veh RCAN1 (11760418_a_at) / RFU FAM167A (11723789_a_at) / Fold change /veh FAM167A (11723789_a_at) / RFU FAM26E (11764081_at) / Fold change /veh FAM26E (11764081_at) / RFU ISYNA1 (11749810_s_at) / Fold change /veh ISYNA1 (11749810_s_at) / RFU ACY1 (11761880_at) / Fold change /veh ACY1 (11761880_at) / RFU 11764098_at / Fold change /veh 11764098_at / RFU SAMD14 (11745864_x_at) / Fold change /veh SAMD14 (11745864_x_at) / RFU NPB (11741838_a_at) / Fold change /veh NPB (11741838_a_at) / RFU TMPRSS6 (11731388_a_at) / Fold change /veh TMPRSS6 (11731388_a_at) / RFU KRTAP10-2 (11738614_at) / Fold change /veh KRTAP10-2 (11738614_at) / RFU ARHGAP8 /// PRR5-ARHGAP8 (11727945_x_at) / Fold change /veh ARHGAP8 /// PRR5-ARHGAP8 (11727945_x_at) / RFU KRTAP5-7 /// NADSYN1 (11734609_at) / Fold change /veh KRTAP5-7 /// NADSYN1 (11734609_at) / RFU RASL12 (11751679_a_at) / Fold change /veh RASL12 (11751679_a_at) / RFU CDKN2B (11736163_a_at) / Fold change /veh CDKN2B (11736163_a_at) / RFU PRF1 (11729649_at) / Fold change /veh PRF1 (11729649_at) / RFU, ZNF638 /// ZNF638-IT1 / Fold change vs veh, ZNF638 /// ZNF638-IT1 / RFU, PANK3 / Fold change vs veh, PANK3 / RFU, SH3YL1 / Fold change vs veh, SH3YL1 / RFU, ZEB2 / Fold change vs veh, ZEB2 / RFU, NRIP1 / Fold change vs veh, NRIP1 / RFU, PTTG1IP / Fold change vs veh, PTTG1IP / RFU, CAPN2 / Fold change vs veh, CAPN2 / RFU, MED14 / Fold change vs veh, MED14 / RFU, SNORA58 / Fold change vs veh, SNORA58 / RFU, C1orf63 / Fold change vs veh, C1orf63 / RFU, LRRFIP1 / Fold change vs veh, LRRFIP1 / RFU, NDUFAF7 / Fold change vs veh, NDUFAF7 / RFU, SLC12A2 / Fold change vs veh, SLC12A2 / RFU, IBTK / Fold change vs veh, IBTK / RFU, ESF1 / Fold change vs veh, ESF1 / Fold change vs veh, TMEM50B / RFU, TAOK1 / Fold change vs veh, TAOK1 / RFU, ACBD3 / Fold change vs veh, ACBD3 / RFU, TMA16 / Fold change vs veh, TMA16 / RFU, RWDD3 / Fold change vs veh, RWDD3 / RFU, BCAT1 / Fold change vs veh, BCAT1 / RFU, EDEM3 / Fold change vs veh, EDEM3 / RFU, TMEM33 / Fold change vs veh, TMEM33 / RFU, WDR75 / Fold change vs veh, WDR75 / RFU, AHCTF1 / Fold change vs veh, AHCTF1 / RFU, TFRC / Fold change vs veh, TFRC / RFU, ZDHHC17 / Fold change vs veh, ZDHHC17 / RFU, NOM1 / Fold change vs veh, NOM1 / RFU, ARL8B / Fold change vs veh, ARL8B / RFU, ZBTB11 / Fold change vs veh, ZBTB11 / RFU, TAMM41 / Fold change vs veh, TAMM41 / RFU, KIAA1704 /// LOC100996395 / Fold change vs veh, KIAA1704 /// LOC100996395 / RFU, ING1 / Fold change vs veh, ING1 / RFU, TRMT61B / Fold change vs veh, TRMT61B / RFU, FUBP3 / Fold change vs veh, FUBP3 / RFU, TP53 / Fold change vs veh, TP53 / RFU, TNKS2 / Fold change vs veh, TNKS2 / RFU, ZFP14 / Fold change vs veh, ZFP14 / RFU, ACTR2 / Fold change vs veh, ACTR2 / RFU, PPP3R1 / Fold change vs veh, PPP3R1 / RFU, PIK3R1 / Fold change vs veh, PIK3R1 / RFU, HNRNPA1 / Fold change vs veh, HNRNPA1 / RFU, RNF170 / Fold change vs veh, RNF170 / RFU, ZNF28 / Fold change vs veh, ZNF28 / RFU, RNGTT / Fold change vs veh, RNGTT / RFU, OGT / Fold change vs veh, OGT / RFU, BRD1 / Fold change vs veh, BRD1 / RFU, MARS / Fold change vs veh, MARS / RFU, ZNF655 / Fold change vs veh, ZNF655 / RFU, FAHD1 / Fold change vs veh, FAHD1 / RFU, BDP1 / Fold change vs veh, BDP1 / RFU, LRRCC1 / Fold change vs veh, LRRCC1 / RFU, ARID1A / Fold change vs veh, ARID1A / RFU, ZNF146 / Fold change vs veh, ZNF146 / RFU, ZNF330 / Fold change vs veh, ZNF330 / RFU, GPN3 / Fold change vs veh, GPN3 / RFU, C9orf123 / Fold change vs veh, C9orf123 / RFU, N4BP2L2 / Fold change vs veh, N4BP2L2 / RFU, ARFIP1 / Fold change vs veh, ARFIP1 / RFU, FAM179B / Fold change vs veh, FAM179B / RFU, BCL10 / Fold change vs veh, BCL10 / RFU, UHRF1BP1L / Fold change vs veh, UHRF1BP1L / RFU, BET1 / Fold change vs veh, BET1 / RFU, CNOT2 / Fold change vs veh, CNOT2 / RFU, ZNF268 / Fold change vs veh, ZNF268 / Fold change vs veh, ZNF507 / RFU, DGCR2 / Fold change vs veh, DGCR2 / RFU, WDSUB1 / Fold change vs veh, WDSUB1 / Fold change vs veh, HSP90B1 /// MIR3652 / RFU, ADSS / Fold change vs veh, ADSS / RFU, GK / Fold change vs veh, GK / RFU, ZNF148 / Fold change vs veh, ZNF148 / RFU, TAF9 / Fold change vs veh, TAF9 / RFU, SLC1A5 / Fold change vs veh, SLC1A5 / RFU, SLMO2 / Fold change vs veh, SLMO2 / RFU, ABCC4 / Fold change vs veh, ABCC4 / RFU, LOC101060439 /// RAP1B / Fold change vs veh, LOC101060439 /// RAP1B / RFU, RFX7 / Fold change vs veh, RFX7 / RFU, GTPBP10 / Fold change vs veh, GTPBP10 / RFU, CNEP1R1 / Fold change vs veh, CNEP1R1 / RFU, BIVM-ERCC5 /// ERCC5 / Fold change vs veh, BIVM-ERCC5 /// ERCC5 / RFU, ILF3 / Fold change vs veh, ILF3 / RFU 11762660_at / Fold change /veh 11762660_at / RFU VCAN (11757783_s_at) / Fold change /veh VCAN (11757783_s_at) / RFU DDX43 (11728927_at) / Fold change /veh DDX43 (11728927_at) / RFU KRT8 (11758188_x_at) / Fold change /veh KRT8 (11758188_x_at) / RFU NKD1 (11759106_at) / Fold change /veh NKD1 (11759106_at) / RFU SRD5A1 (11742802_a_at) / Fold change /veh SRD5A1 (11742802_a_at) / RFU TPSAB1 /// TPSB2 (11721975_s_at) / Fold change /veh TPSAB1 /// TPSB2 (11721975_s_at) / RFU GSTM3 (11746129_a_at) / Fold change /veh GSTM3 (11746129_a_at) / RFU IL23R (11737362_x_at) / Fold change /veh IL23R (11737362_x_at) / RFU TMEM51 (11727254_a_at) / Fold change /veh TMEM51 (11727254_a_at) / RFU PIWIL2 (11732686_x_at) / Fold change /veh PIWIL2 (11732686_x_at) / RFU ORM1 (11744905_x_at) / Fold change /veh ORM1 (11744905_x_at) / RFU CCDC152 (11743942_at) / Fold change /veh CCDC152 (11743942_at) / RFU ECM1 (11717891_a_at) / Fold change /veh ECM1 (11717891_a_at) / RFU IL23R (11748794_a_at) / Fold change /veh IL23R (11748794_a_at) / RFU TNFAIP8L3 (11732012_x_at) / Fold change /veh TNFAIP8L3 (11732012_x_at) / RFU MBOAT4 (11741988_at) / Fold change /veh MBOAT4 (11741988_at) / RFU 11764193_at / Fold change /veh 11764193_at / RFU TMEM53 (11763286_at) / Fold change /veh TMEM53 (11763286_at) / RFU MAGEB2 (11727129_at) / Fold change /veh MAGEB2 (11727129_at) / RFU TMEM200A (11744735_a_at) / Fold change /veh TMEM200A (11744735_a_at) / RFU CCDC152 (11751479_a_at) / Fold change /veh CCDC152 (11751479_a_at) / RFU FAM211A (11726209_a_at) / Fold change /veh FAM211A (11726209_a_at) / RFU RGS16 (11746705_a_at) / Fold change /veh RGS16 (11746705_a_at) / RFU VCAN (11755009_s_at) / Fold change /veh VCAN (11755009_s_at) / RFU RHOB (11743442_s_at) / Fold change /veh RHOB (11743442_s_at) / RFU RGS16 (11720943_a_at) / Fold change /veh RGS16 (11720943_a_at) / RFU RGS16 (11720944_at) / Fold change /veh RGS16 (11720944_at) / RFU, VPS4B / Fold change vs veh, VPS4B / RFU, CREB1 / Fold change vs veh, CREB1 / RFU, DNAJC13 / Fold change vs veh, DNAJC13 / RFU, GNAQ / Fold change vs veh, GNAQ / RFU, CDK5R1 / Fold change vs veh, CDK5R1 / RFU, ZRANB3 / Fold change vs veh, ZRANB3 / RFU, CUL4A / Fold change vs veh, CUL4A / RFU, CCNY / Fold change vs veh, CCNY / RFU, UFL1 / Fold change vs veh, UFL1 / RFU, COG3 / Fold change vs veh, COG3 / RFU, DIAPH2 / Fold change vs veh, DIAPH2 / RFU, SKA2 / Fold change vs veh, SKA2 / RFU, AFF3 / Fold change vs veh, AFF3 / RFU, LMF1 / Fold change vs veh, LMF1 / RFU, IPO11 / Fold change vs veh, IPO11 / RFU, DFFB / Fold change vs veh, DFFB / RFU, FOXP1 / Fold change vs veh, FOXP1 / RFU, CARD8 / Fold change vs veh, CARD8 / RFU, STRN3 / Fold change vs veh, STRN3 / RFU, ADK / Fold change vs veh, ADK / RFU, RASSF2 / Fold change vs veh, RASSF2 / RFU, WIPF1 / Fold change vs veh, WIPF1 / RFU, LARP1B / Fold change vs veh, LARP1B / RFU, RASA1 / Fold change vs veh, RASA1 / RFU, RB1 / Fold change vs veh, RB1 / RFU, PPFIA1 / Fold change vs veh, PPFIA1 / RFU, MAT2A / Fold change vs veh, MAT2A / RFU, CCT5 / Fold change vs veh, CCT5 / RFU, WDR92 / Fold change vs veh, WDR92 / RFU, CUX1 / Fold change vs veh, CUX1 / RFU, TTC7A / Fold change vs veh, TTC7A / RFU, TMEM135 / Fold change vs veh, TMEM135 / RFU, DEPTOR / Fold change vs veh, DEPTOR / RFU, CPM / Fold change vs veh, CPM / RFU, DNAJB6 / Fold change vs veh, DNAJB6 / RFU, CACNA2D3 / Fold change vs veh, CACNA2D3 / RFU, DTX4 / Fold change vs veh, DTX4 / RFU, TFCP2 / Fold change vs veh, TFCP2 / RFU, GMCL1 /// GMCL1P1 / Fold change vs veh, GMCL1 /// GMCL1P1 / RFU, AEBP2 / Fold change vs veh, AEBP2 / RFU, SNHG1 /// SNORD22 /// SNORD25 /// SNORD26 /// SNORD27 /// SNORD28 /// SNORD29 /// SNORD31 / Fold change vs veh, SNHG1 /// SNORD22 /// SNORD25 /// SNORD26 /// SNORD27 /// SNORD28 /// SNORD29 /// SNORD31 / Fold change (Aza/veh), C12orf56 (ProbeSet 11735607_a_at) / Fold change (ACY-1035/veh), C12orf56 (ProbeSet 11735607_a_at) / Fold change (Aza/veh), FGFR1OP (ProbeSet 11751329_s_at) / Fold change (ACY-1035/veh), FGFR1OP (ProbeSet 11751329_s_at) / Fold change (Aza/veh), VPS36 (ProbeSet 11739960_a_at) / Fold change (ACY-1035/veh), VPS36 (ProbeSet 11739960_a_at) / RFU SYPL1 (11715823_x_at) / Fold change /veh SYPL1 (11715823_x_at) / RFU IGFBP7 (11715501_s_at) / Fold change /veh IGFBP7 (11715501_s_at) / RFU REEP3 (11722064_at) / Fold change /veh REEP3 (11722064_at) / RFU IGLL1 (11728026_x_at) / Fold change /veh IGLL1 (11728026_x_at): dose or concentration left out as unconfirmed. The note with it: MV-4-11 cells, 48 hours.

Turning to `Nc1ccc(-c2cccs2)cc1NC(=O)c1ccc2c(c1)cc(C1CC1)n2CCN1CCOCC1` [ACY-1035], the “RFU FAM167A (11723789_a_at)” value was determined as 37.08 RFU.
